In series [1] the test system is PSAC. As to the kind of experiment: Transport inhibition assay, osmotic lysis of infected cells in sorbitol (Table 5). It counts as cell-based, P. falciparum. Conditions: 37° C.; for IC50: read-out: Transport inhibition K0.5.
Series [2] concerns P. falciparum. Nature of the series: microbe, parasite or virus in culture. It counts as cell-based. Conditions: for IC50: Plasmodium falciparum, 72 h; for IC50 ratio: RPMI growth IC50 / PLM growth IC50.
Series [3] can be described thus: Mammalian cytotoxicity, MTS viability. In kind it is cell-based, human. The note with it: human, HeLa cells; 72 h, MTS; read-out: HeLa cell CC50. As to the method:
(§1) Cytotoxicity of PSAC inhibitors was measured with human HeLa cells (ATCC # CLL-2) in 96-well plates at 4000 cells/well. Cultures were incubated with each inhibitor at 37° C. for 72 h in Minimal Essential Medium (Gibco/Invitrogen, Carlsbad, Calif.) supplemented with 10% fetal calf serum. Cell viability was quantified using the vital stain MTS [3-(4,5-dimethylthiazol-2-yl)-5-(3-carboxymethonyphenol)-2-(4-sulfophenyl)-2H-tetrazolium, inner salt], as described (Marshall et al., Growth Regul., 5: 69-84 (1995)). The reported CC50 value is the concentration of an inhibitor that reduces conversion of MTS to formazan by 50%.

A further series deals with human HeLa cells. As to the kind of experiment: Mammalian cytotoxicity, MTS viability. In kind it is cell-based. The protocol: as §1
The test system of series [4] is P. falciparum. Nature of the series: In vitro parasite killing, SYBR Green I fluorescence assay in RPMI 1640 or PLM (Example 1). In kind it is cell-based. Conditions: for IC50: Plasmodium falciparum, 72 h; for Ratio (RPMI/PLM): ratio of IC50 RPMI/PLM. The protocol:
In vitro parasite killing by PSAC inhibitors was quantified using a SYBR Green I-based fluorescence assay for parasite nucleic acid in 96-well format.
Cultures were maintained for 3 days at 37° C. in 5% 02, 5% CO2 without media change. After this incubation, Sybr Green I was added in 20 mM Tris, 10 mM EDTA, 0.016% saponin, 1.6% triton X100.

For series [5], the system named is PSAC. As to the kind of experiment: K0.5 for PSAC block, light-scattering osmotic lysis assay in sorbitol (Example 1). In kind it is cell-based, P. falciparum. The note with it: for IC50: read-out: K0.5 for PSAC block, concentration producing 50% block of PSAC-mediated solute uptake; for K0.5 for PSAC block: concentration producing 50% block of PSAC-mediated solute uptake. The source says: The chemical inhibitors included:
In this assay, increases in transmittance (% T, measured at 700 nm) correlated directly to lysis of infected RBCs and were plotted in arbitrary units. Uninfected RBCs lacked PSAC activity and had undetectably low sorbitol permeability.

Where [6] appears, read: PSAC-limiting medium (PLM), 3 days, read-out: PLM IC50.
Where [7] appears, read: RPMI 1640 standard media, 3 days, read-out: RPMI IC50.

Entries after “also recorded” stand apart in the source; their conditions may differ.

Consider `O=C1Nc2cc(C(=O)N3CCN(c4ccccc4)CC3)ccc2Sc2ccccc21` [(3) (TP-52)], for which the results for the IC50 with PSAC [1], in the series with P. falciparum [2] (read-out: PLM growth IC50) and in the series with P. falciparum [2] (read-out: RPMI growth IC50) were 25 nM, 190 nM and 7300 nM, respectively. The IC50 ratio with P. falciparum [2] amounted to 38. Further, in series [3], the half-maximal cytotoxic concentration (CC50) at 72 h was over 100000 nM. Also, the “specificity (HeLa CC50/parasite PLM IC50)” value in the series with human HeLa cells is over 530.
For the compound `CCCCN(CC)C(=O)c1cc2cc3ccc(C)cc3nc2o1` [(24)], the IC50 was 87 nM with PSAC [1], 270 nM in the series on P. falciparum [2] (read-out: PLM growth IC50) and 23000 nM in the series with P. falciparum [2] (read-out: RPMI growth IC50). In addition, the IC50 ratio in the series on P. falciparum [2] is 114. In addition, in series [3], the CC50 at 72 h came out at 30000 nM. In the series with human HeLa cells, the “specificity (HeLa CC50/parasite PLM IC50)” value was 110.
In the case of `COc1ccc2cc3cc(C(=O)N(C)C4CCCCC4)oc3nc2c1` [(25)], the IC50 in the series with PSAC [1] was 33 nM; with P. falciparum [2] (read-out: PLM growth IC50), 170 nM; in the series with P. falciparum [2] (read-out: RPMI growth IC50), 15000 nM. Moreover, the IC50 ratio in the series on P. falciparum [2] came to 86.
Regarding `CCN(Cc1ccccc1)C(=O)c1ccc2c(c1)NC(=O)c1ccccc1S2` [(31)], the IC50 turned out to be 84 nM in the series with PSAC [1], 410 nM in the series with P. falciparum [2] (read-out: PLM growth IC50) and 4700 nM in the series with P. falciparum [2] (read-out: RPMI growth IC50). Further, the IC50 ratio with P. falciparum [2] was determined as 15. For the same compound, the CC50 at 72 h in series [3] is over 100000 nM. Besides, the “specificity (HeLa CC50/parasite PLM IC50)” value in the series on human HeLa cells is over 240.
Consider `Cc1ccc(C)c(N2CCN(S(=O)(=O)c3ccc(-c4ccc(=O)[nH]n4)s3)CC2)c1` [Compound of formula (1a)], for which the IC50 with P. falciparum [4] (setting [6]) was determined as 2.3 nM; in the series with P. falciparum [4] (setting [7]), 1500 nM; in the series with PSAC [5], 3 nM. Also, the “Ratio (RPMI/PLM)” value in the series on P. falciparum [4] came to 800.
Taken in the same sequence, the figures for `CCc1nn2c(=O)cc(CSc3nc4ccc(NC(=O)c5cccs5)cc4s3)nc2s1` [Compound of formula (2a)] were 300 nM, over 30000 nM, 10 nM and over 100.
Regarding `O=C1N=C(N2CCCC2)S/C1=C/c1cccc(Cl)c1` [Cpd 80], the IC50 in the series on PSAC [1] is 44 nM; in the series on P. falciparum [2] (read-out: PLM growth IC50) it was 170 nM; with P. falciparum [2] (read-out: RPMI growth IC50), 12500 nM. The IC50 ratio in the series with P. falciparum [2] was determined as 130.
On to `C[C@@H]1CC[C@H]2[C@@H](C)C(=O)O[C@@H]3O[C@@]4(C)CC[C@@H]1[C@]32OO4` [artemisinin], for which the IC50 in the series on P. falciparum [4] (setting [6]) worked out at 26 nM; in the series with P. falciparum [4] (setting [7]), 18 nM. In addition, the “Ratio (RPMI/PLM)” value in the series on P. falciparum [4] amounted to 0.66. The “K0.5 for PSAC block” value in the series with PSAC [5] is “did not inhibit PSAC activity”; in the series on PSAC [5] (listed as Artemisinin), “inactive”. The “Transport inhibition K0.5” value in the series on PSAC [1] is “do not inhibit PSAC-mediated solute uptake; also recorded: inactive”. Moreover, in the series on P. falciparum [2], the IC50 ratio turned out to be 0.66.
For the compound `CCN(CC)CCCC(C)Nc1ccnc2cc(Cl)ccc12` (stereo not drawn) [chloroquine, reference compound], the IC50 was 340 nM in the series with P. falciparum [4] (read-out: PLM IC50), 220 nM with P. falciparum [4] (read-out: RPMI IC50), 340 nM in the series on P. falciparum [2] (read-out: PLM growth IC50) and 220 nM with P. falciparum [2] (read-out: RPMI growth IC50). In the series on PSAC [5], the “K0.5 for PSAC block” value was “did not inhibit PSAC activity”. Besides, the “Transport inhibition K0.5” value with PSAC [1] is “do not inhibit PSAC-mediated solute uptake; also recorded: inactive”.
In the case of `O=C1CN(/N=C/c2ccc(-c3ccc([N+](=O)[O-])cc3)o2)C(=O)N1` [dantrolene, reference compound], the IC50 in the series on PSAC [1] was found to be 1200 nM; with P. falciparum [2] (read-out: PLM growth IC50), 3800 nM; with P. falciparum [2] (read-out: RPMI growth IC50), 42000 nM. In addition, in the series with P. falciparum [2], the IC50 ratio came to 18.
As for `NS(=O)(=O)c1cc(C(=O)O)c(NCc2ccco2)cc1Cl` [furosemide, reference compound], the IC50 with P. falciparum [2] (read-out: PLM growth IC50) was 21000 nM; in the series with P. falciparum [2] (read-out: RPMI growth IC50), over 200000 nM.
As to `OC(c1cc(C(F)(F)F)nc2c(C(F)(F)F)cccc12)C1CCCCN1` (stereo not drawn) [mefloquine], the IC50 in the series on P. falciparum [4] (setting [6]) was 33 nM; with P. falciparum [4] (setting [7]) it was 22 nM. In addition, the “Ratio (RPMI/PLM)” value in the series on P. falciparum [4] turned out to be 0.66. Besides, the entries for the “K0.5 for PSAC block” value in the series with PSAC [5] and in the series with PSAC [5] (listed as Mefloquine) were “did not inhibit PSAC activity” and “inactive”, respectively. In addition, the “Transport inhibition K0.5” value in the series on PSAC [1] is “do not inhibit PSAC-mediated solute uptake; also recorded: inactive”. Besides, the IC50 ratio with P. falciparum [2] is recorded as 0.66.

The term CC50 denotes the concentration giving 50% cytotoxicity.

(Values after US12059418B2, “Plasmodial surface anion channel inhibitors for the treatment or prevention of malaria” (The United States of America, as represented by the …, priority 2011, dated 2024).)
